# Entries after “also recorded” stand apart in the source; their conditions may differ. Where no end group is shown, it is not given here.
# Key:
# Type in all cases: cell-based, human
# HUVEC cells [1] = test: Cell attachment assay (MTS) on coated wells; settings: substrate coated at 20, 50, 100 μg/ml (fibronectin 10 and 100 μg/ml), 30 minute incubation, vs BSA 2 mg/ml
# Method: Immulon 1B, untreated 96-well plates (CoStar), and untreated 35 mm dishes (CoStar) were purchased from Fisher Scientific (Pittsburg, Pa.). Human umbilical vein endothelial cells (HUVECs), cell culture media and supplements were purchased from Lonza (Basel, Switzerland). EMD peptides as shown in SEQ ID Nos: 1-4, were synthesized by Commonwealth Biotechnologies Inc., (Richmond, Va.). Amino acid analysis was performed on the peptides to verify the amino acid sequence.
# For the adhesion studies 96-well Immulon 1B plates were used. Various concentrations of the EMD peptides (SEQ ID Nos: 1-4) were tested for their ability to bind cells, and compared to the full-length protein, from which the EMD peptides were derived as positive controls. Bovine Serum Albumin (BSA) treated wells were used as a negative control. Full-length collagen IV, and the EMD peptides Hep I, Hep III, FCHV, and RGD were tested at concentrations of 20 μg/ml, 50 μg/ml, and 100 μg/ml. Full length fibronectin was tested at concentrations of 10 μg/ml and 100 μg/ml. Negative control wells were coated with BSA at a concentration of 2 mg/ml. Fifty μL of protein or EMD peptide solutions at the various concentrations was added separate wells and incubated at 37° C. for at least 18 hours. The protein or peptide solution was then removed and the wells were blocked for 2 hours at 37° C. with 2 mg/mL BSA solution. Following the blocking procedure, wells were washed twice with PBS. HUVEC cells (Lonza, Basel Switzerland) were then added to the wells at a concentration of 5×10^3 to 1×10^4 cells per well. Following a thirty-minute incubation, […] wells were washed and cell adhesion was determined using an MTS (3-(4,5-dimethylthiazol-2-yl)-5-(3-carboxymethoxyphenyl)-2-(4-sulfophenyl)-2H-tetrazolium, inner salt) tetrazolium/formazan assay (Promega, Madison, Wis.) according to the manufacturer's instructions.
# HUVEC cells [2] = test: Haptotactic cell migration assay, modified Boyden chamber; settings: 6 hours; for haptotactic migration compared to untreated membranes: membrane coated at 500 ng/ml to 300 μg/ml, normalized to uncoated control
# Method: In order to test the ability of EMD peptides to recruit cells haptotactic migration assays with Hep I (SEQ ID NO:1), Hep ITT (SEQ TD NO:2), FC/HV (SEQ ID NO:3), RGD (SEQ ID NO:4), FN, and Col IV were conducted using a modified Boyden chamber. Haptotactic migration was performed in triplicate and was assessed using a modified Boyden chamber (Corning, CoStar, Acton, Mass.). The assay was carried out as follows: the lower chamber was first blocked with 10% BSA for at least 30 minutes at 37° C. followed by 3 washings with PBS. The lower surface of the membrane on the upper chamber was coated with approximately 10 μL of protein or EMD peptide solution having a concentration between 500 ng/mL-300 μg/mL and allowed to incubate for 15-30 minutes at 37° C. and then allowed to air dry at room temperature under aseptic conditions. At least one assay was performed for each concentration. Basal cell media supplemented with 0.5% BSA was then added to the lower chamber and 100 μL of H U V ECs (1×10^4 to 2×10^4 cells) in the same cell media was added to the upper chamber. The chambers were then incubated at 37° C., 5.0% CO2 for 6 hours. Upon completion of the incubation period, the cells on the membrane of the upper chamber were fixed with 4% paraformaldehyde followed by removal of the cells on the upper side of the membrane with a Q-tip. Next, the membrane was carefully removed from the chamber, dipped in a 1:4000 dilution of Hoechst 33342 (Invitrogen, Carlsbad, Calif.) and placed on a glass slide. Using a fluorescent microscope (Nikon Eclipse E800) at 10× magnification, five random fields of view were photographed on each membrane for determination of the area cell density.
# In order to allow for direct comparison, the area cell density of migrated cells was normalized to the area cell density of migrated cells on the uncoated (0 μg/mL) control membrane. See, FIG. 3.
# HUVEC cells [3] = test: Cell proliferation assay (MTS) on coated wells; settings: substrate coated at 20, 50, 100 μg/ml (fibronectin 10 and 100 μg/ml), 1-4 days, vs BSA 2 mg/ml, p<0.05
# Method: To determine if EMD peptides can activate cells by stimulating cellular proliferation, 96-well plates coated using the same protocol as described above for the cell attachment assay was used. Following treatment of the wells, HUVEC cells (Lonza, Basel Switzerland) were then added to the wells at a concentration of 5×10^3 to 1×10^4 cells per well and incubated under standard culture conditions for 1, 2, 3 or 4 days. Cell proliferation was then determined at the end of the incubation period using an MTS tetrazolium/formazan assay (Promega, Madison, Wis.) according to the manufacturer's instructions.
Substance,cell attachment compared to BSA control (HUVEC cells [1]; p<0.05),"cell attachment compared to BSA control (HUVEC cells [1]; p<0.05, listed as Fibronectin)",haptotactic migration compared to untreated membranes (HUVEC cells [2]; p<0.05),cell proliferation (cell activation) compared to BSA control (HUVEC cells [3]),"concentrations showing statistically significant migration (HUVEC cells [2]; coated membrane, vs uncoated control membrane)","haptotactic migration compared to untreated membranes (HUVEC cells [2]; p<0.05, listed as FC/HV)"
"fibronectin: Full length fibronectin, positive control [reference compound]",significantly better at promoting cell attachment,increased cell attachment,promoted haptotactic migration,increased cellular proliferation; also recorded: significantly better at stimulating cellular proliferation,–,–
TAGSCLRKFSTMY-OH [Hep I],not statistically different from that of the BSA treated wells; also recorded: not significantly different from that of the BSA control,–,promoted haptotactic migration,increased cellular proliferation; also recorded: significantly better at promoting cell proliferation,greater than 1 μg/ml,–
GEFYFDLRLKGDKY-OH [Hep III],increased cell attachment; also recorded: significantly better at promoting cell attachment,–,significant migration compared to control; also recorded: promoted haptotactic migration,increased cellular proliferation; also recorded: significantly better at promoting cell proliferation,–,–
WQPPRARI-OH [FCHV],not statistically different from that of the BSA treated wells; also recorded: not significantly different from that of the BSA control,–,did not promote haptotactic migration,not different from that of cells cultured in wells coated with BSA; also recorded: not statistically different as compared to the BSA control,–,did not show statistically significant migration at any of the concentrations tested
GRGDSPASSPISC-OH,increased cell attachment; also recorded: significantly better at promoting cell attachment,–,significant migration compared to control; also recorded: promoted haptotactic migration,increased cellular proliferation; also recorded: significantly better at stimulating cellular proliferation,–,–

# From patent US8889140B2, “Compositions and methods for tissue repair” (TransTarget, Inc., priority 2007, dated 2014)
